Test results: patent US9717748B2, “Compositions and methods for treating an infection” (CMPD LICENSING, LLC, priority 2015, dated 2017)

How the values were obtained:
Aspergillus flavus = experiment: Expected efficacy of antifungal agents
Aspergillus fumigatus = experiment: Expected efficacy of antifungal agents
Scedosporium apiospermum = experiment: Expected efficacy of antifungal agents
Cryptococcus neoformans = experiment: Expected efficacy of antifungal agents
[1] = tested on: Trichophyton mentagrophytes; experiment: Expected efficacy of antifungal agents
Leishmania infantum = experiment: Expected efficacy of antifungal agents
Bacteroides fragilis = experiment: Expected efficacy of antibiotic agents; settings: Gram: anaer
Clostridium difficile = experiment: Expected efficacy of antibiotic agents; settings: Gram: anaer
Clostridium perfringens = settings: Gram: anaer
Chlamydia pneumoniae = experiment: Expected efficacy of antibiotic agents; settings: Gram: n/a
Chlamydia psittaci = settings: Gram: n/a
Chlamydia trachomatis = experiment: Expected efficacy of antibiotic agents; settings: Gram: n/a
Mycoplasma pneumoniae = experiment: Expected efficacy of antibiotic agents; settings: Gram: n/a
Acinetobacter baumannii = experiment: Expected efficacy of antibiotic agents; settings: Gram: neg
[2] = tested on: Acinetobacter calcoaceticus; experiment: Expected efficacy of antibiotic agents; settings: Gram: neg
Acinetobacter lwoffii = experiment: Expected efficacy of antibiotic agents; settings: Gram: neg
Bordetella pertussis = experiment: Expected efficacy of antibiotic agents; settings: Gram: neg
Campylobacter jejuni = experiment: Expected efficacy of antibiotic agents; settings: Gram: neg
Citrobacter freundii = experiment: Expected efficacy of antibiotic agents; settings: Gram: neg
Enterobacter cloacae = experiment: Expected efficacy of antibiotic agents; settings: Gram: neg
Enterobacter sakazakii = experiment: Expected efficacy of antibiotic agents; settings: Gram: neg
Haemophilus ducreyi = experiment: Expected efficacy of antibiotic agents; settings: Gram: neg
[3] = tested on: Klebsiella (Calymmato-bacterium) granulomatis; experiment: Expected efficacy of antibiotic agents; settings: Gram: neg
Klebsiella pneumoniae = experiment: Expected efficacy of antibiotic agents; settings: Gram: neg
Legionella pneumophila = settings: Gram: neg
Moraxella catarrhalis = experiment: Expected efficacy of antibiotic agents; settings: Gram: neg
Neisseria gonorrhoeae = experiment: Expected efficacy of antibiotic agents; settings: Gram: neg
Neisseria meningitidis = experiment: Expected efficacy of antibiotic agents; settings: Gram: neg
Proteus mirabilis = experiment: Expected efficacy of antibiotic agents; settings: Gram: neg
Pseudomonas aeruginosa = experiment: Expected efficacy of antibiotic agents; settings: Gram: neg
Shigella dysenteriae = experiment: Expected efficacy of antibiotic agents; settings: Gram: neg
Shigella flexneri = experiment: Expected efficacy of antibiotic agents; settings: Gram: neg
Shigella sonnei = experiment: Expected efficacy of antibiotic agents; settings: Gram: neg
Vibrio cholerae = experiment: Expected efficacy of antibiotic agents; settings: Gram: neg
Yersinia pestis = settings: Gram: neg
Corynebacterium jeikeium = experiment: Expected efficacy of antibiotic agents; settings: Gram: pos
[4] = tested on: Corynebacterium urealyticum; experiment: Expected efficacy of antibiotic agents; settings: Gram: pos
Diphtheroids = experiment: Expected efficacy of antibiotic agents; settings: Gram: pos
Enterococcus faecalis = experiment: Expected efficacy of antibiotic agents; settings: Gram: pos
Enterococcus faecium = experiment: Expected efficacy of antibiotic agents; settings: Gram: pos
[5] = tested on: Methicillin resistant staphaureus (MRSA); experiment: Expected efficacy of antibiotic agents; settings: Gram: pos
Peptostreptococcus = experiment: Expected efficacy of antibiotic agents; settings: Gram: pos
[6] = tested on: Staphylococcus aureus (MSSA); experiment: Expected efficacy of antibiotic agents; settings: Gram: pos
[7] = tested on: Staphylococcus epidermidis; experiment: Expected efficacy of antibiotic agents; settings: Gram: pos
Streptococcus agalactiae = experiment: Expected efficacy of antibiotic agents; settings: Gram: pos
Streptococcus pneumoniae = experiment: Expected efficacy of antibiotic agents; settings: Gram: pos
Streptococcus pyogenes = experiment: Expected efficacy of antibiotic agents; settings: Gram: pos
[8] = tested on: Viridans group streptococci; experiment: Expected efficacy of antibiotic agents; settings: Gram: pos

C[C@@H](c1ncncc1F)[C@](O)(Cn1cncn1)c1ccc(F)cc1F [Voriconazole]
Expected efficacy against Aspergillus flavus (Aspergillus flavus): yes | Expected efficacy against Aspergillus fumigatus (Aspergillus fumigatus): yes | Expected efficacy against Scedosporium apiospermum (Scedosporium apiospermum): yes

CCC(C)n1ncn(-c2ccc(N3CCN(c4ccc(OC[C@H]5CO[C@](Cn6cncn6)(c6ccc(Cl)cc6Cl)O5)cc4)CC3)cc2)c1=O (mixture of isomers) [Itraconazole]
Expected efficacy against Aspergillus flavus (Aspergillus flavus): yes | Expected efficacy against Aspergillus fumigatus (Aspergillus fumigatus): yes | Expected efficacy against Coccidioides immitis (Coccidioides immitis): yes | Expected efficacy against Cryptococcus neoformans (Cryptococcus neoformans): yes | Expected efficacy against Trichophyton mentagrophytes [1]: yes

C[C@@H]1[C@H](O)[C@@H](C)/C=C/C=C/C=C/C=C/C=C/C=C/C=C/[C@H](O[C@@H]2O[C@H](C)[C@@H](O)[C@H](N)[C@@H]2O)C[C@@H]2O[C@](O)(C[C@@H](O)C[C@@H](O)[C@H](O)CC[C@@H](O)C[C@@H](O)CC(=O)O[C@H]1C)C[C@H](O)[C@H]2C(=O)O [Amphotericin]
Expected efficacy against Aspergillus flavus (Aspergillus flavus): yes | Expected efficacy against Aspergillus fumigatus (Aspergillus fumigatus): yes | Expected efficacy against Coccidioides immitis (Coccidioides immitis): yes | Expected efficacy against Cryptococcus neoformans (Cryptococcus neoformans): yes | Expected efficacy against Leishmania infantum (Leishmania infantum): yes

NC[C@H]1O[C@H](O[C@H]2[C@H](O)[C@@H](O[C@H]3O[C@H](CO)[C@@H](O)[C@H](N)[C@H]3O)[C@H](N)C[C@@H]2N)[C@H](N)C[C@@H]1O [Tobramycin]
Expected efficacy against Bacteroides fragilis (Bacteroides fragilis): no | Expected efficacy against Clostridium difficile (Clostridium difficile): no | Expected efficacy against Clostridium perfringens (Clostridium perfringens): no | Expected efficacy against Chlamydia pneumoniae (Chlamydia pneumoniae): no | Expected efficacy against Chlamydia psittaci (Chlamydia psittaci): no | Expected efficacy against Chlamydia trachomatis (Chlamydia trachomatis): no | Expected efficacy against Mycoplasma pneumoniae (Mycoplasma pneumoniae): no | Expected efficacy against Acinetobacter baumannii (Acinetobacter baumannii): no | Expected efficacy against Acinetobacter calcoaceticus [2]: no | Expected efficacy against Acinetobacter lwoffii (Acinetobacter lwoffii): no | Expected efficacy against Bordetella pertussis (Bordetella pertussis): no | Expected efficacy against Campylobacter jejuni (Campylobacter jejuni): yes | Expected efficacy against Citrobacter freundii (Citrobacter freundii): yes | Expected efficacy against Enterobacter cloacae (Enterobacter cloacae): yes | Expected efficacy against Enterobacter sakazakii (Enterobacter sakazakii): yes | Expected efficacy against Haemophilus ducreyi (Haemophilus ducreyi): yes | Expected efficacy against Klebsiella (Calymmato-bacterium) granulomatis [3]: yes | Expected efficacy against Klebsiella pneumoniae (Klebsiella pneumoniae): yes | Expected efficacy against Legionella pneumophila (Legionella pneumophila): no | Expected efficacy against Moraxella catarrhalis (Moraxella catarrhalis): yes | Expected efficacy against Neisseria gonorrhoeae (Neisseria gonorrhoeae): no | Expected efficacy against Neisseria meningitidis (Neisseria meningitidis): no | Expected efficacy against Proteus mirabilis (Proteus mirabilis): yes | Expected efficacy against Pseudomonas aeruginosa (Pseudomonas aeruginosa): yes | Expected efficacy against Shigella dysenteriae (Shigella dysenteriae): yes | Expected efficacy against Shigella flexneri (Shigella flexneri): yes | Expected efficacy against Shigella sonnei (Shigella sonnei): yes | Expected efficacy against Vibrio cholerae (Vibrio cholerae): no | Expected efficacy against Yersinia pestis (Yersinia pestis): yes | Expected efficacy against Corynebacterium jeikeium (Corynebacterium jeikeium): no | Expected efficacy against Corynebacterium urealyticum [4]: no | Expected efficacy against Diphtheroids (Diphtheroids): no | Expected efficacy against Enterococcus faecalis (Enterococcus faecalis): no | Expected efficacy against Enterococcus faecium (Enterococcus faecium): no | Expected efficacy against Methicillin resistant staphaureus (MRSA) [5]: no | Expected efficacy against Peptostreptococcus (Peptostreptococcus): no | Expected efficacy against Staphylococcus aureus (MSSA) [6]: no | Expected efficacy against Staphylococcus epidermidis [7]: no | Expected efficacy against Streptococcus agalactiae (Streptococcus agalactiae): no | Expected efficacy against Streptococcus pneumoniae (Streptococcus pneumoniae): no | Expected efficacy against Streptococcus pyogenes (Streptococcus pyogenes): no | Expected efficacy against Viridans group streptococci [8]: no
